# Data as given in PubChem BioAssay AID504843 (Broad Institute, 2011).
# The source made the active and inactive calls. How the calls were made is not given here.
# System: bacterial growth, BacTiter-Glo ATP luminescence
# Experiment: antibacterial activity by ATP level – BacTiter-Glo luminescence, cherry-picked samples, counter-screen, dose response (AID 504843);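 further: growth measured after 8 h incubation at 30 °C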
smiles,measurement,value
CO[C@H]1C=CO[C@@]2(C)Oc3c(C)c(O)c4c(O)c(c(C=NN5CCN(C)CC5)c(O)c4c3C2=O)NC(=O)C(C)=CC=C[C@H](C)[C@H](O)[C@@H](C)[C@@H](O)[C@@H](C)[C@H](OC(C)=O)[C@@H]1C,AC50,> 15 µM (inactive)
